Measured values from US9221985B2, “Solvent compositions” (TBF Environmental Technology, Inc., priority 2013, dated 2015).
Like-named read-outs stand apart in the source and are kept apart here.

How the values were obtained:
[1] = Viscosity of Paraloid B-66 DMC acrylic resin with reduction in solids; type: physicochemical
[2] = Hansen solubility parameters
Excerpt: In some embodiments, a solvent composition according to the present disclosure includes an acetate ester, such as MA, EA, or TBAc, in combination with one or more additional reagents to increase dispersion and decrease hydrogen bonding and/or to decrease the polarity of the solvent composition.

[3] = Evaporation rate relative to n-butyl acetate / xylene; type: physicochemical
Excerpt: […]. […] Without being bound to any particular theory, the “tail” solvent may slow the drying of a coating towards the end, allowing time for it to flow and level, and preventing dry spray, thereby improving the film appearance.
The evaporation rate of Formulation 1vs xylene was examined (FIG. 1). Formulation 1 was faster evaporating than xylene by a factor of 1.63-1.65. However it was apparent that the evaporation rate of Formulation 1 slowed towards the end. This slower “Tail” would aid in flow and leveling and help prevent dry spray.

[4] = cited from earlier work
[5] = Physical/chemical characteristics of the solvents (specific gravity, flash point, boiling point, viscosity, surface tension, volatility); conditions: for Surface tension: at 20° C.
[6] = Solvency or reduction characteristics: viscosity of epoxy resin reduced with solvent; type: physicochemical
[7] = reduced to 35.0% non-volatile with the solvent
[8] = reduced to 40.0% non-volatile with the solvent
[9] = relative to n-butyl acetate = 1
[10] = EPON 828 reduced to 95% solids content by weight

| Compound | Viscosity of Paraloid B-66 DMC [1, 7] [cps] | Viscosity of Paraloid B-66 DMC [1, 8] [cps] | δD (dispersion) [2] [cal^1/2 cm^−3/2] | δH (hydrogen bonding) [2] [cal^1/2 cm^−3/2] | δP (polar) [2] [cal^1/2 cm^−3/2] | Evaporation rate (n-butyl acetate = 1) [3, 9] | Boiling Point [5] | Viscosity @ 20° C. [5] | Specific Gravity (@25° C.) [5] | Flashpoint (TCC) [5] | Surface tension [5] | Viscosity @ 20 RPM ([6]; EPON 828, 50% solids content) [cps] | Viscosity @ 20 RPM ([6]; EPON 828, 55% solids content) [cps] | Viscosity @ 20 RPM ([6]; EPON 828, 60% solids content) [cps] | Viscosity @ 20 RPM ([6]; EPON 828, 65% solids content) [cps] | Viscosity @ 20 RPM ([6]; EPON 828, 70% solids content) [cps] | Viscosity @ 20 RPM ([6]; EPON 828, 75% solids content) [cps] | Viscosity @ 20 RPM ([6]; EPON 828, 80% solids content) [cps] | Viscosity @ 20 RPM ([6]; EPON 828, 85% solids content) [cps] | Viscosity @ 20 RPM ([6]; EPON 828, 90% solids content) [cps] | other results |
| --- | --- | --- | --- | --- | --- | --- | --- | --- | --- | --- | --- | --- | --- | --- | --- | --- | --- | --- | --- | --- | --- |
| COC(=O)OC [DMC, dimethyl carbonate] | 370 | 970 | – | – | – | – | – | – | – | – | – | – | – | – | – | – | – | – | – | – | – |
| COC(C)=O [MA, methyl acetate] | – | – | 7.6 | 3.7 | 3.5 | 6.2 | 56 °C | 0.37 (mPa · s) cP | 0.93 | −4 °C | 24.8 dyn/cm | – | – | – | – | – | – | – | – | – | δ (Hansen solubility parameter) [2]: 9.5 cal^1/2 cm^−3/2; solubility in water ([4]; in water at room temperature): 25%; stability ([4]; strong aqueous bases or aqueous acids): not stable in the presence of strong aqueous bases or aqueous acids |
| FC(F)(F)c1ccc(Cl)cc1 [PCBTF, parachlorobenzotrifluoride] | 450 | 1050 | 8.8 | 1.9 | 2.9 | 0.9 | 139 °C | 0.79 (mPa · s) cP | 1.34 | 109 °C | 25 dyn/cm | 27 | 38 | 52 | 91 | 153 | 278 | 544 | 1010 | 1900 | δ (Hansen solubility parameter) [2]: 9.15 cal^1/2 cm^−3/2; Viscosity @ 20 RPM [6, 10]: 5125 cps |
| CC(=O)OC(C)(C)C [TBAc, tert-butyl acetate] | 290 | 780 | 7 | 2.9 | 1.7 | – | 98 °C | 0.7 (mPa · s) cP | 0.87 | 16.7 °C | 22.4 dyn/cm | 15 | 19 | 22 | 26 | 81 | 93 | 192 | 430 | 1150 | Evaporation rate (n-butyl acetate = 1) [3]: 2.8; Viscosity @ 20 RPM [6, 10]: 4250 cps |
| Cc1ccccc1 [Toluene, toluene] | – | – | 8.8 | 0.98 | 0.68 | 1.9 | – | 0.59 (mPa · s) cP | 0.86 | 16 °C | 27.73 dyn/cm | – | – | – | – | – | – | – | – | – | – |
| xylene [Xylenes] | 580 | 1500 | 9.2 | 1.15 | 1.3 | – | 110.6-144 °C | 0.34-0.8 (mPa · s) cP | 0.87 | 17-25 °C | 25.32-28.27 dyn/cm | 13 | 17 | 19 | 28 | 40 | 76 | 148 | 330 | 880 | Evaporation rate (n-butyl acetate = 1) [3]: 0.9; Viscosity @ 20 RPM [6, 10]: 3350 cps; Flashpoint (TCC) ([5]; listed as xylene): 30 °C |
